Where two headings read alike, the source gives them in different places. Square brackets hold non-standard residues; d marks the D form. Peptide text beside a SMILES is read from it. * marks the point of attachment. dPhe(4-Cl) = N[C@H](Cc1ccc(Cl)cc1)C(=O)O; d2Nal = N[C@H](Cc1ccc2ccccc2c1)C(=O)O; Lys(iPr) = CC(C)NCCCC[C@H](N)C(=O)O; dCit = NC(=O)NCCC[C@@H](N)C(=O)O; tBuAla = CC(C)(C)C[C@H](N)C(=O)O; d3Pal = N[C@H](Cc1cccnc1)C(=O)O; pGlu = O=C1CC[C@@H](C(=O)O)N1; Nicotinoyl = O=C(c1cccnc1)*

For assay [1], the target named is T1, LH-RH receptors (Rattus norvegicus, UniProt P30969).
T1 sequence (P30969 1-327): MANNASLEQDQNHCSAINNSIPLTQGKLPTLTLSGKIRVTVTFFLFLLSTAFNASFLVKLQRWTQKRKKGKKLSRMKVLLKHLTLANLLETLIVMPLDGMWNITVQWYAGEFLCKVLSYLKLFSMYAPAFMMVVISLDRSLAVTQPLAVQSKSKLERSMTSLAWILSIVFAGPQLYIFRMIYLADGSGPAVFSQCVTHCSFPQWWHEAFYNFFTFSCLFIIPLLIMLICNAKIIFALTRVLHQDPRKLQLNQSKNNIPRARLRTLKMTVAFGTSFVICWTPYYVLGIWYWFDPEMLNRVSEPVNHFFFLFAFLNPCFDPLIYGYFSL

The target of assay [2] is T1, LH-RH receptors. Nature of the assay: biochemical.
For assay [3], the target named is T1, LH-RH receptors. Nature of the assay: Stimulation of testosterone secretion in adult male rats after subcutaneous injection (agonist activity in vivo). The arrangement: exert an agonist activity upon the LH-RH receptors in vivo; from tissue; host or cells: whole animal, adult male Sprague-Dawley rats; species or system Sprague-Dawley rats. As for the experimental part:
The peptides according to the general formula (IIa) exert an agonist activity upon the LH-RH receptors in vivo, resulting in the stimulation of LH secretion by the pituitary, which, in males, stimulates the secretion of testosterone by the testis.
Two hours later, blood samples were drawn for total plasma testosterone determination by direct radioimmunoassay (Immunotech).
At this intermediate dose of 10 ng/kg, several examples with Npg^7 or Ada^7 in place of Leu^7 according to the invention were screened for agonistic activity (Tables 2 and 3). When available from Bachem (France) or Sigma (France), the corresponding standard agonist with Leu^7 was tested for comparison.

Usually Ki stands for a dissociation constant, usually derived from enzyme kinetics or from competition with a known ligand. With `CC(=O)N[C@H](Cc1ccc2ccccc2c1)C(=O)N[C@H](Cc1ccc(Cl)cc1)C(=O)N[C@H](Cc1cccnc1)C(=O)N[C@@H](CO)C(=O)N[C@@H](CCCCNC(=O)c1cccnc1)C(=O)N[C@H](CCCCNC(=O)c1cccnc1)C(=O)N[C@@H](CC(C)C)C(=O)N[C@@H](CCCCNC(C)C)C(=O)N1CCC[C@H]1C(=O)N[C@H](C)C(N)=O` [Antide, reference compound] (Ac-[d2Nal][dPhe(4-Cl)][d3Pal]SK(Nicotinoyl)[dK](Nicotinoyl)L[Lys(iPr)]P[dA]-NH2), the “% of inhibition of ovulation” value at LH-RH receptors [1] (0.5 μg/rat s.c.) is reported as 20%; on LH-RH receptors [1] (1 μg/rat s.c.) it was 69%; at LH-RH receptors [1] (2.5 μg/rat s.c.) it was 67%; on LH-RH receptors [1] (5 μg/rat s.c.) it was 100%; at LH-RH receptors [1] (10 μg/rat s.c.) it was 100%. On LH-RH receptors [2], affinity was put at a Ki of 0.692 nM.

Regarding `CC(C)(C)C[C@H](NC(=O)[C@@H](Cc1ccc2ccccc2c1)NC(=O)[C@H](Cc1ccc(O)cc1)NC(=O)[C@H](CO)NC(=O)[C@H](Cc1c[nH]c2ccccc12)NC(=O)[C@H](Cc1c[nH]cn1)NC(=O)[C@@H]1CCC(=O)N1)C(=O)N[C@@H](CCCNC(=N)N)C(=O)N1CCC[C@H]1C(=O)NCC(N)=O` [Example 13, pGlu-His-Trp-Ser-Tyr-D-Nal-Npg-Arg-Pro-Gly-NH2] ([pGlu]HWSY[d2Nal][tBuAla]RPG-NH2), the Ki at LH-RH receptors [2] was 1.07 nM. In addition, the “agonistic potency in words” value at LH-RH receptors [3] (10 ng/kg s.c., comment on Tables 2 and 3) is on record as “range of potency similar to that of leuprorelin or tryptorelin”. The Total plasma testosterone at LH-RH receptors [3] (Table 2, 10 ng/kg subcutaneous in PBS, blood two hours later, male Sprague-Dawley rats, vehicle 2.7 ± 0.3) was found to be 22.9 ± 4.2 nmol/L.

With `CC(=O)N[C@H](Cc1ccc2ccccc2c1)C(=O)N[C@H](Cc1ccc(Cl)cc1)C(=O)N[C@H](Cc1cccnc1)C(=O)N[C@@H](CO)C(=O)N[C@@H](CCCCNC(=O)c1cccnc1)C(=O)N[C@H](CCCCNC(=O)c1cccnc1)C(=O)N[C@@H](CC(C)(C)C)C(=O)N[C@@H](CCCCNC(C)C)C(=O)N1CCC[C@H]1C(=O)N[C@H](C)C(N)=O` [Example 15, AcD-Nal-D-pClPhe-D-Pal-Ser-NicLys-D-NicLys-Npg-IprLys-Pro-D-Ala-NH2] (Ac-[d2Nal][dPhe(4-Cl)][d3Pal]SK(Nicotinoyl)[dK](Nicotinoyl)[tBuAla][Lys(iPr)]P[dA]-NH2), the “% of inhibition of ovulation” value is on record as 0% at LH-RH receptors [1] (0.1 μg/rat s.c.), 60% at LH-RH receptors [1] (0.25 μg/rat s.c.), 100% at LH-RH receptors [1] (0.5 μg/rat s.c.) and 80% on LH-RH receptors [1] (1 μg/rat s.c.). On LH-RH receptors [2], this compound showed a Ki of 0.589 nM.

Take `CC(=O)N[C@H](Cc1ccc2ccccc2c1)C(=O)N[C@H](Cc1ccc(Cl)cc1)C(=O)N[C@H](Cc1cccnc1)C(=O)N[C@@H](CO)C(=O)N[C@@H](Cc1ccc(O)cc1)C(=O)N[C@H](CCCNC(N)=O)C(=O)N[C@@H](CC(C)(C)C)C(=O)N[C@@H](CCCNC(=N)N)C(=O)N1CCC[C@H]1C(=O)N[C@H](C)C(N)=O` [Example 16, AcD-Nal-D-pClPhe-D-Pal-Ser-Tyr-D-Cit-Npg-Arg-Pro-D-Ala-NH2] (Ac-[d2Nal][dPhe(4-Cl)][d3Pal]SY[dCit][tBuAla]RP[dA]-NH2): at LH-RH receptors [1] (0.25 μg/rat s.c.), the “% of inhibition of ovulation” value is 20% and the “Number of ovulating females/total number of treated females” value is 4/5. Besides, at LH-RH receptors [1] (1 μg/rat s.c.), the “% of inhibition of ovulation” value amounted to 100%, the “Number of ovulating females/total number of treated females” value is on record as 0/5 and the “antiovulatory activity in words” value is reported as “maximal or sub-maximal activity”. In addition, the Ki on LH-RH receptors [2] was 0.0676 nM.

The record behind these values is patent US6586402B1, “LH-RH peptide analogues, their uses and pharmaceutical compositions containing them” (Laboratoire Theramex, priority 1997, dated 2003).
